This note sets out measurements from ChEMBL document CHEMBL3596094, “Nucleoside Diphosphate Prodrugs: Nonsymmetric DiPPro-Nucleotides” (J Med Chem, 2015).

Data set [1] in a line: Half life in human CEM/0 cell extracts incubated at 37 degC by RP-18-HPLC method. Format: ADME, CCRF-CEM.
Data set [2] has as its system Human immunodeficiency virus 2. In words: Antiviral activity against HIV2 ROD infected in human thymidine kinase deficient CEM/TK- cells assessed as reduction in virus-induced giant cell formation incubated for 4 to 5 days. Format: functional, organism-based. Particulars: Human immunodeficiency virus 2, ISOLATE ROD.
A short description of data set [3]: Cytotoxicity against human CEM/0 cells assessed as reduction in cell proliferation incubated for 4 to 5 days.
Data set [4] concerns Human immunodeficiency virus 2. Description: Antiviral activity against HIV2 ROD infected in human CEM/0 cells assessed as reduction in virus-induced giant cell formation incubated for 4 to 5 days. Format: functional, organism-based. The settings on record: Human immunodeficiency virus 2, ISOLATE ROD, CCRF-CEM.
A short description of data set [5]: Half life in pH 7.3 PBS incubated at 37 degC by RP-18-HPLC method. Format: physicochemical.
In data set [6] the test system is Human immunodeficiency virus 1. In words: Antiviral activity against HIV1 3B infected in human CEM/0 cells assessed as reduction in virus-induced giant cell formation incubated for 4 to 5 days. In kind it is functional, organism-based. Particulars: Human immunodeficiency virus 1, 3B, CCRF-CEM.
A short description of data set [7]: Half life in presence of pig liver esterase assessed as half life for DiPPro-NDP by RP-18-HPLC method. Format: ADME.

The term half-life denotes the time needed for the level to fall by half in the phase considered. With `CCCCCCCC(=O)Oc1ccc(COP(=O)(O)OP(=O)(O)OC[C@@H]2C=C[C@H](n3cc(C)c(=O)[nH]c3=O)O2)cc1`, in data set [1], the half-life turned out to be 1.65 h.

By EC50 is commonly meant the midpoint of the concentration-response curve. As usually defined, the CC50 is the concentration at which the toxic effect on the cells reaches its halfway point. With `CCCCCCCCCCCC(=O)Oc1ccc(COP(=O)(OCc2ccc(OC(C)=O)cc2)OP(=O)(O)OC[C@@H]2C=C[C@H](n3cc(C)c(=O)[nH]c3=O)O2)cc1.N` (stereo not given in full), the figures for the concentration giving a half-maximal response (EC50) in data set [2], in data set [4] and in data set [6] were 1770 nM, 280 nM and 290 nM, respectively. Further, in data set [3] (CEM/0 cells), the cytotoxic concentration (CC50) amounted to 26000 nM. Moreover, the figures for the half-life in data set [1] and in data set [5] were 0.16 h and 48 h, respectively.

Take `CCCCC(=O)Oc1ccc(COP(=O)(OCc2ccc(OC(=O)c3ccc(C(F)(F)F)cc3)cc2)OP(=O)(O)OC[C@H]2O[C@@H](n3cc(C)c(=O)[nH]c3=O)C[C@@H]2N=[N+]=[N-])cc1.N` (stereo not given in full): the concentration giving a half-maximal response (EC50) was greater than 10000 nM in data set [2], 60 nM in data set [4] and 36 nM in data set [6]. In addition, the half-maximal cytotoxic concentration (CC50) in data set [3] (CEM/0 cells) turned out to be 58000 nM. The half-life was 0.83 h in data set [1] and 19 h in data set [5].

Consider `CCCCCCCCCCCC(=O)Oc1ccc(COP(=O)(OCc2ccc(OC(=O)CCCC)cc2)OP(=O)(O)OC[C@@H]2C=C[C@H](n3cc(C)c(=O)[nH]c3=O)O2)cc1.N` (stereo not given in full), for which the concentration giving a half-maximal response (EC50) was determined as 130 nM in data set [2], 280 nM in data set [4] and 100 nM in data set [6]. The half-maximal cytotoxic concentration (CC50) in data set [3] (CEM/0 cells) was 30000 nM. The half-life in data set [1] is 1.91 h; in data set [5], 52 h.

`Cc1cn([C@H]2C[C@H](N=[N+]=[N-])[C@@H](CO)O2)c(=O)[nH]c1=O` [ZIDOVUDINE]: the 50% effective concentration (EC50) in data set [2] was greater than 250000 nM; in data set [4], 490 nM; in data set [6], 44 nM. In data set [3] (CEM/0 cells), the CC50 was greater than 250000 nM.

`CCCCC(=O)Oc1ccc(COP(=O)(OCc2ccc(OC(=O)c3ccc(C)cc3)cc2)OP(=O)(O)OC[C@@H]2C=C[C@H](n3cc(C)c(=O)[nH]c3=O)O2)cc1.N` (stereo not given in full): the results for the EC50 in data set [2], in data set [4] and in data set [6] were 10000 nM, 1450 nM and 300 nM, respectively. Besides, the half-maximal cytotoxic concentration (CC50) in data set [3] (CEM/0 cells) came out at 14000 nM. Also, the half-life is 0.96 h in data set [1] and 50 h in data set [5].

In the case of `CCCCCCCCCC(=O)Oc1ccc(COP(=O)(OCc2ccc(OC(=O)CCCCCCCCC)cc2)OP(=O)(O)OC[C@H]2O[C@@H](n3cc(C)c(=O)[nH]c3=O)C[C@@H]2N=[N+]=[N-])cc1`, the EC50 in data set [2] amounted to 1300 nM; in data set [4], 230 nM; in data set [6] it was 26 nM. Also, the CC50 in data set [3] (CEM/0 cells) came to 38000 nM.

For `CCCCCCCCCC(=O)Oc1ccc(COP(=O)(OCc2ccc(OC(C)=O)cc2)OP(=O)(O)OC[C@@H]2C=C[C@H](n3cc(C)c(=O)[nH]c3=O)O2)cc1.N` (stereo not given in full), the EC50 in data set [2] worked out at 2320 nM; in data set [4], 1360 nM; in data set [6] it was 330 nM. Moreover, the CC50 in data set [3] (CEM/0 cells) is 15000 nM. In addition, the half-life was 0.04 h in data set [1], 40 h in data set [5] and 8.4 s in data set [7].

On to `CCCCCCCC(=O)Oc1ccc(COP(=O)(OCc2ccc(OC(C)=O)cc2)OP(=O)(O)OC[C@@H]2C=C[C@H](n3cc(C)c(=O)[nH]c3=O)O2)cc1.N` (stereo not given in full), for which the 50% effective concentration (EC50) worked out at 6310 nM in data set [2], 1050 nM in data set [4] and 330 nM in data set [6]. The 50% cytotoxic concentration (CC50) in data set [3] (CEM/0 cells) amounted to 33000 nM. For the same molecule, the half-life in data set [1] is 0.04 h; in data set [5] it was 36 h.

`Cc1ccc(C(=O)Oc2ccc(COP(=O)(O)OP(=O)(O)OC[C@@H]3C=C[C@H](n4cc(C)c(=O)[nH]c4=O)O3)cc2)cc1` gave a half-life in data set [1] of 14.5 h.

Regarding `Cc1cn([C@H]2C[C@H](N=[N+]=[N-])[C@@H](COP(=O)(O)OP(=O)(O)OCc3ccc(OC(=O)c4ccc(C(F)(F)F)cc4)cc3)O2)c(=O)[nH]c1=O`, the half-life in data set [1] is 3.83 h.

In data set [1], `CCCCCCCCCC(=O)Oc1ccc(COP(=O)(O)OP(=O)(O)OC[C@H]2O[C@@H](n3cc(C)c(=O)[nH]c3=O)C[C@@H]2N=[N+]=[N-])cc1` yielded a half-life of 0.833 h.

For the molecule `CC(=O)Oc1ccc(COP(=O)(OCc2ccc(OC(=O)c3ccc(C)cc3)cc2)OP(=O)(O)OC[C@@H]2C=C[C@H](n3cc(C)c(=O)[nH]c3=O)O2)cc1.N` (stereo not given in full), the EC50 was determined as 10000 nM in data set [2], 1470 nM in data set [4] and 290 nM in data set [6]. Moreover, in data set [3] (CEM/0 cells), the CC50 turned out to be 11000 nM. The half-life in data set [1] is 0.04 h; in data set [5], 58 h.

As for `CCCCCCCCCC(=O)Oc1ccc(COP(=O)(OCc2ccc(OC(=O)CCCC)cc2)OP(=O)(O)OC[C@@H]2C=C[C@H](n3cc(C)c(=O)[nH]c3=O)O2)cc1.N` (stereo not given in full), the EC50 in data set [2] was found to be 830 nM; in data set [4], 1170 nM; in data set [6], 360 nM. Besides, the 50% cytotoxic concentration (CC50) in data set [3] (CEM/0 cells) came out at 20000 nM. In addition, the results for the half-life in data set [1], in data set [5] and in data set [7] were 1.05 h, 40 h and 15.6 s, respectively.

On to `Cc1cn([C@H]2C=C[C@@H](CO)O2)c(=O)[nH]c1=O` [STAVUDINE], for which the EC50 in data set [2] was 150000 nM; in data set [4], 2230 nM; in data set [6], 520 nM. Moreover, the CC50 in data set [3] (ccrf-cem) is 79000 nM.

For `Cc1cn([C@H]2C=C[C@@H](COP(=O)(O)OP(=O)(O)OCc3ccc(OC(=O)c4ccc(C(F)(F)F)cc4)cc3)O2)c(=O)[nH]c1=O`, the half-life in data set [1] worked out at 11.5 h.

Consider `CC(=O)Oc1ccc(COP(=O)(OCc2ccc(OC(=O)c3ccc(C(F)(F)F)cc3)cc2)OP(=O)(O)OC[C@@H]2C=C[C@H](n3cc(C)c(=O)[nH]c3=O)O2)cc1.N` (stereo not given in full), for which the EC50 in data set [2] was greater than 10000 nM; in data set [4], 1380 nM; in data set [6], 720 nM. For the same molecule, the CC50 in data set [3] (CEM/0 cells) was found to be 51000 nM. The values for the half-life in data set [1] and in data set [5] were 0.03 h and 15 h, respectively.

Consider `CCCCC(=O)Oc1ccc(COP(=O)(OCc2ccc(OC(=O)c3ccc(C(F)(F)F)cc3)cc2)OP(=O)(O)OC[C@@H]2C=C[C@H](n3cc(C)c(=O)[nH]c3=O)O2)cc1.N` (stereo not given in full), for which the values for the EC50 in data set [2], in data set [4] and in data set [6] were greater than 10000 nM, 720 nM and 400 nM, respectively. Further, the CC50 in data set [3] (CEM/0 cells) was 37000 nM. The results for the half-life in data set [1] and in data set [5] were 0.88 h and 15 h, respectively.

Molecule `CCCCCCCCCCCC(=O)Oc1ccc(COP(=O)(O)OP(=O)(O)OC[C@@H]2C=C[C@H](n3cc(C)c(=O)[nH]c3=O)O2)cc1` returned a half-life in data set [1] of 1.15 h.

Turning to `CCCCCCCCCCCC(=O)Oc1ccc(COP(=O)(O)OP(=O)(O)OC[C@H]2O[C@@H](n3cc(C)c(=O)[nH]c3=O)C[C@@H]2N=[N+]=[N-])cc1`, in data set [1], the half-life worked out at 1.05 h.

`CCCCCCCC(=O)Oc1ccc(COP(=O)(OCc2ccc(OC(=O)CCCC)cc2)OP(=O)(O)OC[C@@H]2C=C[C@H](n3cc(C)c(=O)[nH]c3=O)O2)cc1.N` (stereo not given in full): the values for the EC50 in data set [2], in data set [4] and in data set [6] were 6310 nM, 1470 nM and 330 nM, respectively. Moreover, the half-maximal cytotoxic concentration (CC50) in data set [3] (CEM/0 cells) turned out to be 66000 nM. Further, the half-life in data set [1] was 0.71 h; in data set [5], 36 h.

For the molecule `CC(=O)Oc1ccc(COP(=O)(OCc2ccc(OC(=O)c3ccc(C(F)(F)F)cc3)cc2)OP(=O)(O)OC[C@H]2O[C@@H](n3cc(C)c(=O)[nH]c3=O)C[C@@H]2N=[N+]=[N-])cc1.N` (stereo not given in full), the concentration giving a half-maximal response (EC50) in data set [2] was greater than 10000 nM; in data set [4], 60 nM; in data set [6], 12 nM. The CC50 in data set [3] (CEM/0 cells) worked out at 100000 nM. Further, the results for the half-life in data set [1] and in data set [5] were 0.04 h and 13 h, respectively.

The molecule `CCCCCCCCCC(=O)Oc1ccc(COP(=O)(O)OP(=O)(O)OC[C@@H]2C=C[C@H](n3cc(C)c(=O)[nH]c3=O)O2)cc1` returned a half-life in data set [1] of 0.833 h.

Turning to `CCCCCCCC(=O)Oc1ccc(COP(=O)(O)OP(=O)(O)OC[C@H]2O[C@@H](n3cc(C)c(=O)[nH]c3=O)C[C@@H]2N=[N+]=[N-])cc1`, the half-life in data set [1] is 1.65 h.
